# Laboratory results published in patent US20170137824A1, “NEW TREATMENT AGAINST INFLUENZA VIRUS” (priority 2014, published 2017).
# Residues, ends and D or L forms follow the SMILES beside them. *: point of attachment. Cbz = O=C(OCc1ccccc1)*
# How the values were obtained:
# [1] = system: X31 strain of IAV; assay: Uncoating after endocytosis and fusion at LEs (ammonium chloride block and washout, drugs added 60 min post-uptake); assay type: cell-based, Influenza A X31 virus strain (H3N2); settings: drug added 60 min post-uptake, kept during 60 min uncoating
# [2] = system: X31 strain of IAV; assay: Acid-bypass uncoating assay (fusion at the plasma membrane); assay type: cell-based, Influenza A X31 virus strain (H3N2); settings: for uncoating blocked/decreased by % following PM bypass: percent reduction of uncoating; for block of uncoating by type II myosin inhibitors: after acid-bypass at the PM (context)
# [3] = target: dynein
molecule,measurement,setting,value
CC(Nc1nc(N2CCCC2)nc2ccccc12)c1ccccc1 (stereo not drawn) [importazole],effect on uncoating when IAV fuses at the LEs,[1],no significant effect
COC(=O)Nc1nc2ccc(C(=O)c3cccs3)cc2[nH]1 [nocodazole],uncoating blocked/decreased by % following PM bypass,[2],35%
Cc1ccc2c(c1)C(=O)C1(O)CCN(c3ccccc3)C1=N2 (stereo not drawn) [blebbistatin],block of uncoating by type II myosin inhibitors,[2],more than half
O=S(=O)(c1cccc2c(Cl)cccc12)N1CCCNCC1 [ML-9],block of uncoating by type II myosin inhibitors,[2],more than half
N#CC(=C(O)c1ccc(Cl)cc1Cl)c1nc2cc(Cl)ccc2c(=O)[nH]1 [ciliobrevin D],"uncoating following acid-bypass at the PM, reduced to % of control","[2]; remaining uncoating relative to control, siRNA experiments in A549 cells",62%
C=C1[C@@H](C)[C@H]2[C@H](Cc3ccccc3)NC(=O)[C@]23[C@H](OC(C)=O)/C=C/[C@@](C)(O)C(=O)[C@@H](C)C/C=C/[C@H]3[C@@H]1O [cytochalasin D],uncoating blocked/decreased by % following PM bypass,[2],83%
CC(C)C[C@@H](C=O)NC(=O)[C@H](CC(C)C)NC(=O)[C@H](CC(C)C)NC(=O)OCc1ccccc1 [MG132] (Cbz-Leu-Leu-Leu-aldehyde),effect on uncoating when IAV fuses at the LEs,[1],no significant effect
"HDAC6 (Dbm), mouse HDAC6 without the dynein-binding domain (del437-481), expressed in rescued HDAC6 KO MEFs (protein) MTSTGQDSSTRQRKSRHNPQSPLQESSATLKRGGKKCAVPHSSPNLAEVKKKGKMKKLSQPAEEDLVVGLQGLDLNPETRVPVGTGLVFDEQLNDFHCLWDDSFPESPERLHAIREQLILEGLLGRCVSFQARFAEKEELMLVHSLEYIDLMETTQYMNEGELRVLAETYDSVYLHPNSYSCACLATGSVLRLVDALMGAEIRNGMAVIRPPGHHAQHNLMDGYCMFNHLAVAARYAQKKHRIQRVLIVDWDVHHGQGTQFIFDQDPSVLYFSIHRYEHGRFWPHLKASNWSTIGFGQGQGYTINVPWNQTGMRDADYIAAFLHILLPVASEFQPQLVLVAAGFDALHGDPKGEMAATPAGFAHLTHLLMGLAGGKLILSLEGGYNLRALAKGVSASLHTLLGDPCPMLESCVVPCASAQTSIYCTLEALEPFWEVLVYDEKMMSHCNLWDNHHPETPQRILRIMCHLEEVGLAARCLILPARPALDSELLTCHSAEYVEHLRTTEKMKTRDLHREGANFDSIYICPSTFACAKLATGAACRLVEAVLSGEVLNGIAVVRPPGHHAEPNAACGFCFFNSVAVAARHAQIIAGRALRILIVDWDVHHGNGTQHIFEDDPSVLYVSLHRYDRGTFFPMGDEGASSQVGRDAGIGFTVNVPWNGPRMGDADYLAAWHRLVLPIAYEFNPELVLISAGFDAAQGDPLGGCQVTPEGYAHLTHLLMGLAGGRIILILEGGYNLASISESMAACTHSLLGDPPPQLTLLRPPQSGALVSISEVIQVHRKYWRSLRLMKMEDKEECSSSRLVIKKLPPTASPVSAKEMTTPKGKVPEESVRKTIAALPGKESTLGQAKSKMAKAVLAQGQSSEQAAKGTTLDLATSKETVGGATTDLWASAAAPENFPNQTTSVEALGETEPTPPASHTNKQTTGASPLQGVTAQQSLQLGVLSTLELSREAEEAHDSEEGLLGEAAGGQDMNSLMLTQGFGDFNTQDVFYAVTPLSWCPHLMAVCPIPAAGLDVSQPCKTCGTVQENWVCLTCYQVYCSRYVNAHMVCHHEASEHPLVLSCVDLSTWCYVCQAYVHHEDLQDVKNAAHQNKFGEDMPHSH","uncoating using PM bypass, relative to WT MEFs",[3],uncoating in the HDAC6 (Db^m) cells was reduced to 58%% of WT MEFs
same,"uncoating when the virus was allowed to fuse at LEs, compared to WT MEFs",[3],uncoating was reduced to 67% in HDAC6 (Db^m) cells compared to WT MEFs
